Results taken from ChEMBL document CHEMBL1201862, “PubChem BioAssay data set” (2004).
The source made the active and inactive calls.

How the values were obtained:
Cytochrome P450 2D6 = Cytochrome P450 2D6 (Homo sapiens, UniProt P10635);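 further: CYP2D6 member of a cytochrome P450 panel assay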
Cytochrome P450 2C9 = Cytochrome P450 2C9 (Homo sapiens, UniProt P11712)
Cytochrome P450 3A4 = Cytochrome P450 3A4 (Homo sapiens, UniProt P08684);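 further: CYP3A4 tested as one member of a cytochrome P450 panel screen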
Cytochrome P450 3A4, sequence (P08684 whole entry): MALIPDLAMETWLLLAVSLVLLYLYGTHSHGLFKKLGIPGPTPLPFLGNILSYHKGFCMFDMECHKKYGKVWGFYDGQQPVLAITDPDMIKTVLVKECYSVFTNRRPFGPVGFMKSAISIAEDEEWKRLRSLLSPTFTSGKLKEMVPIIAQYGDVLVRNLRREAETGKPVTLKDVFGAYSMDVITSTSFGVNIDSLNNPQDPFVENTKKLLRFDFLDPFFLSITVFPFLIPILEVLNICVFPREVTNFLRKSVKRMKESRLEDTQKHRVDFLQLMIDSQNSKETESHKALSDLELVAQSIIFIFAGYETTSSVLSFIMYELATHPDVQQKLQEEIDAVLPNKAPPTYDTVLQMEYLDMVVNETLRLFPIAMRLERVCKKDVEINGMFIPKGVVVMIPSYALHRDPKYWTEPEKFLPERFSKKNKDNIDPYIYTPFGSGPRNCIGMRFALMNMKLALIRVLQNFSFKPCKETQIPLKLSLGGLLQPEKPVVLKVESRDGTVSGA

Cytochrome P450 2C19 = Cytochrome P450 2C19 (Homo sapiens, UniProt P33261); assay: Cytochrome panel assay with activity outcomes. Panel member name: p450-cyp2c19 Compounds with AC50 equal or less than 10 uM are considered active; format: functional
Cytochrome P450 2C19, sequence (P33261 whole entry): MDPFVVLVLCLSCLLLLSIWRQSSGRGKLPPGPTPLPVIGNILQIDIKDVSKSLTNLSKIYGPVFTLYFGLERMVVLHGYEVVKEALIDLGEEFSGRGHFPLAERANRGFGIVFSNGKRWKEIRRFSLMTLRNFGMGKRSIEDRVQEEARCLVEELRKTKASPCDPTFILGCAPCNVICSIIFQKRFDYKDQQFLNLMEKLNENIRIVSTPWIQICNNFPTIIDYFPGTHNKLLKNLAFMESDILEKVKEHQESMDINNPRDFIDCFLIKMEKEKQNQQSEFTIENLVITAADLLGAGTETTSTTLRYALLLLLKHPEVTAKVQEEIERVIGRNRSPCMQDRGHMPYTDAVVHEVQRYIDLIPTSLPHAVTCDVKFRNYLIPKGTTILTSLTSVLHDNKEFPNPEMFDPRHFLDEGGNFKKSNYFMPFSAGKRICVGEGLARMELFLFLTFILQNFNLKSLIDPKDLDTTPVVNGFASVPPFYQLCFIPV

SN12K1 = assay: cells; format: functional; details: Homo sapiens
[1] = Luminescence Cell-Based Dose Response HTS to Identify Activators of Luciferase Translation or Activity in H4 […] Cells. [Related pubchem assays: 1829 (Project Summary), 1814 (Primary HTS)]; format: functional
Protein RecA = molecular target: T1, Protein RecA (Mycobacterium tuberculosis, UniProt P9WHJ3); assay: Fluorescence Cell-Free Homogeneous Dose Retest to Identify Inhibitors of RecA-Intein Splicing Activity. [Related pubchem assays (depositor defined):AID2097, AID2223, AID489010, AID492950]; format: functional
T1 sequence (P9WHJ3 whole entry): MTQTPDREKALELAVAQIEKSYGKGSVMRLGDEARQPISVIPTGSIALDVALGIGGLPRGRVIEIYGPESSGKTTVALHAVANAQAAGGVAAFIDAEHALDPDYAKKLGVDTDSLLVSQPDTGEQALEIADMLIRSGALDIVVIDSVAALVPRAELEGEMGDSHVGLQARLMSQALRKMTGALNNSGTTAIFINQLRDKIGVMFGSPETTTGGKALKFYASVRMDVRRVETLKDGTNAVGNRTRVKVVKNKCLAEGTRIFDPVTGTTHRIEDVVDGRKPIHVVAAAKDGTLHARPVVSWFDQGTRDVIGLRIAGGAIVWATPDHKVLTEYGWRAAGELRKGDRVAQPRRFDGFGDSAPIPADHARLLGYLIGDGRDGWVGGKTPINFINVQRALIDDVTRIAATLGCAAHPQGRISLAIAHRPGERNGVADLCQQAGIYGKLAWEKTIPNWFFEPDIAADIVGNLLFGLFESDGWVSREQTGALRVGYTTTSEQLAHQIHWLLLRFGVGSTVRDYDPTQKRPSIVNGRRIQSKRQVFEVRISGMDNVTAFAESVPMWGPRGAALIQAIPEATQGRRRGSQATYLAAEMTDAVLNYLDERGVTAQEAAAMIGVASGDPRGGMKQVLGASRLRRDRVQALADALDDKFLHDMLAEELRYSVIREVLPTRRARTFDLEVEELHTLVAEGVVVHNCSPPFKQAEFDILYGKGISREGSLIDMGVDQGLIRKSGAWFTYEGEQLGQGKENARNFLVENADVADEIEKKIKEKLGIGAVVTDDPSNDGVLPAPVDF

[2] = molecular target: T2, Replicative DNA helicase DnaB (Mycobacterium tuberculosis, UniProt P9WMR3); assay: DnaB intein splicing inhibitors, dose response, biochemical, cell-free fluorescence (AID 449749); format: functional
T2 sequence (P9WMR3 whole entry): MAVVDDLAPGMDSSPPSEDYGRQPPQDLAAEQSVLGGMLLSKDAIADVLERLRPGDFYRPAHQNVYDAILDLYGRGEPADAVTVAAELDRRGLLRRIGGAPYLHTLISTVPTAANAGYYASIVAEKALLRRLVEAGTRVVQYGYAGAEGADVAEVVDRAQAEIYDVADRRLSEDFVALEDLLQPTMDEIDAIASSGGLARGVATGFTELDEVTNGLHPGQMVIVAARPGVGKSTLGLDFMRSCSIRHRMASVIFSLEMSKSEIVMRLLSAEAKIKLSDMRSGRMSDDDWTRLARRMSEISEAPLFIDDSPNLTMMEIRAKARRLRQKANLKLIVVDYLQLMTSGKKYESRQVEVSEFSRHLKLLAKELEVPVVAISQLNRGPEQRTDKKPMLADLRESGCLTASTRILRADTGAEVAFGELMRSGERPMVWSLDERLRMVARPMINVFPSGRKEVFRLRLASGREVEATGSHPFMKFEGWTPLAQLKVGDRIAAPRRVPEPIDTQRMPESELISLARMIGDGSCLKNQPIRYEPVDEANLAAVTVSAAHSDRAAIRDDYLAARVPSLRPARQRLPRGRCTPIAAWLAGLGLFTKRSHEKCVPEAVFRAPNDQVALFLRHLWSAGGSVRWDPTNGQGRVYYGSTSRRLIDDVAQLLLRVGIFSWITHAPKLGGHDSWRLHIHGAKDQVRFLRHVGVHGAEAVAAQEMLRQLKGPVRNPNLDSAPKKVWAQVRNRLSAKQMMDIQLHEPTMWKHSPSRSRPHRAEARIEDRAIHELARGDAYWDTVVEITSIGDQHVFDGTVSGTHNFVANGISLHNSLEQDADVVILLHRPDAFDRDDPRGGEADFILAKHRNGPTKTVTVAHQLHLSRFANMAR

[3] = molecular target: Heat shock protein HSP 90-alpha (Homo sapiens, UniProt P07900); format: functional, organism-based
[4] = inhibitors of HIV Env-driven cell fusion, dose response, cherry-pick (AID 652057); format: functional, cell-based

Cytochrome P450 2C9, sequence (P11712 whole entry): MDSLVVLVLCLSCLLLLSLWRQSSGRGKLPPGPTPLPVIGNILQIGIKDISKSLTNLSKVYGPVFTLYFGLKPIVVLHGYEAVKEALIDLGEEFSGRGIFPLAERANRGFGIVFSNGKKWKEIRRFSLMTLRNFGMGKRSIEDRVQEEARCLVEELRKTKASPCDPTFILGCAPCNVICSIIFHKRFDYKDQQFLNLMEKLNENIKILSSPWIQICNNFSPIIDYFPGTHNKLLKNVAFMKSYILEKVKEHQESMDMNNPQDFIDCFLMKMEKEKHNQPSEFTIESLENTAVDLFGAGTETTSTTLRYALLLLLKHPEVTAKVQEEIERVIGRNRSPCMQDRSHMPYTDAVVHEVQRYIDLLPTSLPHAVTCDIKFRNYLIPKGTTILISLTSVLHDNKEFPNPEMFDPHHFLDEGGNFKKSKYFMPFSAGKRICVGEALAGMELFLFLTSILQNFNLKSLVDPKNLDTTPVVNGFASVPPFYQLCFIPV
Cytochrome P450 2D6, sequence (P10635 whole entry): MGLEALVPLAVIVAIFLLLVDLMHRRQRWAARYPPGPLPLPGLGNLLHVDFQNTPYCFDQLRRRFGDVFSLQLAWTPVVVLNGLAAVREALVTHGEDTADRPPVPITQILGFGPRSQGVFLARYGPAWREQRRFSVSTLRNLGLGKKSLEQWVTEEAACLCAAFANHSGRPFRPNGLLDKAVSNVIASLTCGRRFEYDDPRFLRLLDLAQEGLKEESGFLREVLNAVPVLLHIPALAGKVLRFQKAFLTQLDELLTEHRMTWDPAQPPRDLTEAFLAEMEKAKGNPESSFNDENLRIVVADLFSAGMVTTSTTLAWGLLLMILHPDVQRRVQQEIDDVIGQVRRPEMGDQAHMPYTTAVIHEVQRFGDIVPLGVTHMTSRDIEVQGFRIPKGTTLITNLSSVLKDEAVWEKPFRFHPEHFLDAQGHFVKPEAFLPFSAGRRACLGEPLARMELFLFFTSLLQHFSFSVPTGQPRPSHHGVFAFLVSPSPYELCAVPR

Nc1nc(-c2ccccc2)c(-c2ccccc2)s1
AC50 (Cytochrome P450 2D6): 15.8 µM (inconclusive)
AC50 (Cytochrome P450 2C9): inconclusive

O=C(c1cccc(C(F)(F)F)c1)N1CCC(O)(CS(=O)(=O)Cc2ccccc2)CC1
AC50 (Cytochrome P450 2C9): inconclusive
AC50 (Cytochrome P450 3A4): 3.16 µM (inconclusive)

C#CCCCO/N=C1/[C@H]2O[C@@H]2[C@@H](O)[C@H]2[C@H]1CCn1c(=O)n(Cc3cc4c(cc3Cl)OCO4)c(=O)n12
AC50 (Cytochrome P450 2C19): inconclusive
AC50 (Cytochrome P450 2C9): inconclusive

C[C@]12CC[C@@H]3c4ccc(OC(=O)N(CCCl)CCCl)cc4CC[C@H]3[C@@H]1CC[C@@H]2O [ESTRAMUSTINE]
GI50 (SN12K1): 0.025 µM (active)

COc1cc(C)nc(N2CCCC(C(=O)Nc3cc(Cl)ccc3OC)C2)n1 (configuration not stated)
AC50 (Cytochrome P450 2C9): inconclusive

COc1ccc(Nc2cnn(-c3nc4ccccc4s3)c(=O)c2Cl)cc1
EC50 [1]: 0.198 µM (active)
EC50 (Protein RecA): 4.01 µM (active)
AC50 [2]: > 380 µM (inactive)
AC50 [3]: 3.21 µM (active)

O=C(NCCCN1CCOCC1)C1COc2ccccc2O1 (configuration not stated)
AC50 (Cytochrome P450 2C19; read-out: AC50): 17.8 µM (inconclusive)
AC50 (Cytochrome P450 2D6): 7.94 µM (inconclusive)
AC50 (Cytochrome P450 2C9): inconclusive
AC50 (Cytochrome P450 3A4): 14.1 µM (inconclusive)

CCCCNC(=O)C[C@H]1C[C@@]2(C(=O)OC)C(=C[C@H](C(C)(C)C)O[C@@H]2C)N(Cc2ccc3c(c2)OCO3)C1=O
AC50 [4]: 19.8 µM (active)
